Measurements: US5252592A, “Tetrazoleacetic acid derivatives having aldose reductase inhibitory activity” (Wakamoto Pharmaceutical Co., Ltd., priority 1991, dated 1993)

Molecular target: T1, aldose reductase (Rattus norvegicus, UniProt P07943)
T1 construct: their crystalline lenses were immediately removed and stored at -80° C; The lenses were homogenized; from tissue; host or cells: crystalline lens of six-week-old male SD rats (30,000 rpm supernatant, dialysed)
Test: Test for Examining Aldose Reductase Inhibitory Effect
Type: biochemical, male SD rats (crystalline lenses)
Settings: rat lens aldose reductase; DL-glyceraldehyde 10 mM, NADPH 0.15 mM, pH 5.2, 30° C., 5 minutes; least-square regression of log dose-response curve
Procedure: Six-weeks-old male SD rats were anesthetized with ether and killed. Then their crystalline lenses were immediately removed and stored at -80° C. […] The resulting supernatant was dialyzed overnight against 0.05M sodium chloride solution to obtain an aldose reductase solution. All operations were conducted at 4° C. and the enzyme solution was stored at -80° C.
More specifically, 0.1 ml of DL-glyceraldehyde (final concentration: 10 mM) was added to 0.9 ml of 100 mM sodium potassium phosphate buffer (pH 5.2) which contained lithium sulfate (final concentration: 400 mM), reduced nicotinamide adenine dinucleotide phosphate (final concentration: 0.15 mM), the enzyme solution, and the compound to be evaluated (final concentration: 10^-6 M, 10^-7 M or 10^-8 M), and then the reaction was conducted at 30° C. for 5 minutes. During the reaction, the change in the absorbance at 340 nm with time was monitored.
The maximum reducing rate of the absorbance […] during the reaction was determined. By subtracting, from this value, the maximum reducing rate (U0) at 340 nm of the reaction solution before the addition of the substrate (DL-glyceraldehyde), the reaction rate (V=U-U0) was calculated as a true reaction rate in the presence of the compound to be tested.
The same procedure was repeated except for the absence of the compound to be tested. A true reaction rate (V0) in case the enzyme was not inhibited was calculated (V0 =U'-U0 '). The aldose reductase inhibitory activity of the test compounds was determined according to the following formula:
Rate of Inhibition (%)=(V0 -V)/V0 ×100
The concentration of inhibitor giving 50% inhibitation of enyzme activity […] was estimated from the least-square regression line of the log dose-response curve.

An IC50 of 130 nM was found for `COc1ccc2c(-c3nnnn3CC(=O)O)cccc2c1C(F)(F)F` [Example 3 - 4, [5-[1-(6-methoxy-5-trifluoromethyl)naphthyl]tetrazol-1-yl]acetic acid] in this work.

An IC50 of 19 nM was found for `COc1ccc2cc(-c3nnnn3CC(=O)O)ccc2c1` [Example 3 - 3] in this work.

An IC50 of 50 nM was found for `O=C(O)Cn1nnnc1-c1ccc2ccccc2c1` [Example 3 - 1] in this work.

An IC50 of 25 nM was found for `O=C(O)Cn1nnnc1-c1cccc2ccccc12` [Example 3 - 2, [5-(1-naphthyl)tetrazol-1-yl]acetic acid] in this work.
